According to paper PMC9511441, “Semisynthetic teicoplanin derivatives with dual antimicrobial activity against SARS-CoV-2 and multiresistant bacteria” (Scientific Reports, 2022):
Read-outs that look alike come from different tables or passages of the source.

Legend:
[1] = tested on: VeroE6 cells; assay: Cytotoxicity in mock-infected VeroE6 cells (XTT); format: cell-based, African green monkey; conditions: mock-infected Vero E6 cells, three days, XTT
[2] = tested on: HEL cells; assay: Cytotoxicity in mock-infected HEL cells (MTS); format: cell-based, human; conditions: mock-infected HEL cells, MTS, mean of 2–3 tests
[3] = tested on: SARS-CoV-2 pseudovirus; assay: microbe, parasite or virus in culture; format: cell-based; conditions: cathepsin-dependent endosomal pathway
[4] = tested on: SARS-CoV-2 pseudovirus; assay: microbe, parasite or virus in culture; format: cell-based; conditions: A549-AT cells, TMPRSS2-mediated uptake
[5] = molecular target: T1, human recombinant cathepsin L (Homo sapiens, UniProt P07711); assay: biochemical; format: biochemical; conditions: read-out: Cathepsin L IC50; pH 5.5, Z-Phe-Arg-AMC substrate
T1 construct: made in house; host or cells: Escherichia coli

[6] = tested on: E. faecalis; assay: MIC, broth microdilution; format: cell-based; conditions: Enterococcus faecalis
[7] = tested on: S. aureus; assay: MIC, broth microdilution; format: cell-based; conditions: Staphylococcus aureus
[8] = tested on: S. haemolyticus; assay: MIC, broth microdilution; format: cell-based; conditions: Staphylococcus haemolyticus
[9] = tested on: S.pyogenes; assay: MIC, broth microdilution; format: cell-based; conditions: Streptococcus pyogenes
[10] = tested on: E. faecium; assay: microbe, parasite or virus in culture; format: cell-based; conditions: Enterococcus faecium
[11] = tested on: S. epidermidis; assay: microbe, parasite or virus in culture; format: cell-based; conditions: Staphylococcus epidermidis
[12] = tested on: Calu-3 cells; assay: Cytotoxicity in mock-infected Calu-3 cells (XTT); conditions: read-out: CC50, Calu-3 cells, three days
[13] = tested on: Klebsiella pneumoniae ST258 clone K 160/09; assay: MIC against Gram-negative strain; conditions: Klebsiella pneumoniae
[14] = tested on: Pseudomonas aeruginosa ATCC 27853; assay: MIC against Gram-negative strain; conditions: ATCC27853
[15] = tested on: Acinetobacter baumannii ATCC BAA1605; assay: MIC against Gram-negative strain; conditions: Acinetobacter baumannii, ATCCBAA1605
[16] = tested on: Escherichia coli ATCC 25218; assay: MIC against Gram-negative strain; conditions: ATCC25218
[17] = tested on: S. aureus ATCC29213; assay: Fluorescent competition assay, release of fluorescent vancomycin; conditions: cells saturated with FL-VAN, Fig. 7 left panel
[18] = read-out: Average MIC value, E. faecalis VAN^R,TEI^R/VanA, 1 strain
[19] = read-out: Average MIC value, E. faecalis VAN^S, TEI^S, 2 strains
[20] = read-out: MIC value, E.faecalis JH2-2
[21] = read-out: MIC value, E.faecalis OG1RF
[22] = read-out: MIC value, E.faecalis V583, VAN,TEI/VanA
[23] = ATCC 29213 / MSSA, read-out: MIC value, S. aureus ATCC29213, MSSA
[24] = MRSA / USA300, read-out: MIC value, S. aureus USA300, CA-MRSA
[25] = MRSA, read-out: Average MIC value, S. aureus CA-MRSA, 1 strain
[26] = MRSA, read-out: Average MIC value, S. aureus MRSA, 7 strains
[27] = MRSA, read-out: MIC value, S. aureus 73OL, MRSA
[28] = MRSA, read-out: MIC value, S. aureus 214OL, MRSA
[29] = MRSA, read-out: MIC value, S. aureus 1041OL, MRSA
[30] = MRSA, read-out: MIC value, S. aureus A6918, MRSA
[31] = MRSA, read-out: MIC value, S. aureus A6919, MRSA
[32] = MRSA, read-out: MIC value, S. aureus Mu50, MRSA
[33] = MRSA, read-out: MIC value, S. aureus N315, MRSA
[34] = MSSA / NEWMAN, read-out: MIC value, S. aureus Newman, MSSA
[35] = MSSA, read-out: Average MIC value, S. aureus MSSA, 4 strains
[36] = MSSA, read-out: MIC value, S. aureus MSSA476, MSSA
[37] = MSSA, read-out: MIC value, S. aureus SA564, MSSA
[38] = S. haemolyticus mecA, 6 strains, read-out: Average MIC value
[39] = S.haemolyticus DALB_R1, mecA, read-out: MIC value
[40] = S.haemolyticus DALB_R2, mecA, read-out: MIC value
[41] = S.haemolyticus DALB_R3, mecA, read-out: MIC value
[42] = S.haemolyticus DALB_R4, mecA, read-out: MIC value
[43] = S.haemolyticus DALB_R5, mecA, read-out: MIC value
[44] = S.haemolyticus ORI_R1, mecA, read-out: MIC value
[45] = read-out: MIC value, S.pyogenes H232
[46] = read-out: MIC value, S.pyogenes H550
[47] = read-out: MIC value, S.pyogenes H578
[48] = read-out: Average MIC value, E. faecium VAN^R,TEI^R/VanA, 8 strains
[49] = read-out: Average MIC value, E. faecium VAN^S, TEI^S, 1 strain
[50] = read-out: MIC value, E.faecium E335, VAN,TEI,LNZ/VanA
[51] = read-out: MIC value, E.faecium E355, VAN,TEI,LNZ/VanA
[52] = read-out: MIC value, E.faecium E832, VAN,TEI,LNZ/VanA
[53] = read-out: MIC value, E.faecium E854, VAN,TEI,LNZ/VanA
[54] = read-out: MIC value, E.faecium E859, VAN,TEI,LNZ/VanA
[55] = read-out: MIC value, E.faecium E1114, VAN,TEI,LNZ/VanA
[56] = read-out: MIC value, E.faecium E1131, VAN,TEI,LNZ/VanA
[57] = read-out: MIC value, E.faecium E1132, VAN,TEI,LNZ/VanA
[58] = read-out: MIC value, E.faecium TX0016
[59] = read-out: Average MIC value, S. epidermidis mecA, 6 strains
[60] = read-out: MIC value, S.epidermidis ORI_R1, mecA
[61] = read-out: MIC value, S.epidermidis ORI_R2, mecA
[62] = read-out: MIC value, S.epidermidis ORI_R3, mecA
[63] = read-out: MIC value, S.epidermidis ORI_R4, mecA
[64] = read-out: MIC value, S.epidermidis TEI_R1, mecA
[65] = read-out: MIC value, S.epidermidis TEI_R2, mecA

T1 sequence (P07711 114-333): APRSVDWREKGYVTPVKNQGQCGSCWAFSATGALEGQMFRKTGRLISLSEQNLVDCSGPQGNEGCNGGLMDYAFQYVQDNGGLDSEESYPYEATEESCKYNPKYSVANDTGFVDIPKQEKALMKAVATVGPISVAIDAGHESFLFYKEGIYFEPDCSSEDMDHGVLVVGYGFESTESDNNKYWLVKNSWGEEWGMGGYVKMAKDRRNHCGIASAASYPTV

CC(=O)N[C@H]1[C@H](O[C@@H]2c3ccc(c(Cl)c3)Oc3cc4cc(c3O)Oc3ccc(cc3Cl)C[C@H]3NC(=O)[C@H](n5cc(COCCCC(F)(F)C(F)(F)C(F)(F)C(F)(F)C(F)(F)C(F)(F)F)nn5)c5ccc(O)c(c5)Oc5cc(O)cc(c5)[C@H](NC3=O)C(=O)N[C@H]4C(=O)N[C@H]3C(=O)N[C@@H]2C(=O)N[C@H](C(=O)O)c2cc(O)cc(O)c2-c2cc3ccc2O)O[C@H](CO)[C@@H](O)[C@@H]1O [Compound 4]
0.812 µg/mL: MIC [11, 59]
8 µg/mL: MIC [8, 39] | MIC [8, 40] | MIC [8, 41] | MIC [8, 42] | MIC [8, 44]
2 µg/mL: MIC [7, 24] | MIC [7, 25] | MIC [7, 27] | MIC [7, 28] | MIC [7, 29] | MIC [7, 32] | MIC [7, 33] | MIC [7, 34] | MIC [7, 36] | MIC [7, 37] | MIC [11, 60]
0.0625 µg/mL: MIC [9, 45] | MIC [9, 46] | MIC [9, 47]
6.8 µg/mL: MIC [8, 38]
0.25 µg/mL: MIC [6, 19] | MIC [6, 20] | MIC [6, 21] | MIC [10, 49] | MIC [10, 58] | MIC [11, 63]
1.75 µg/mL: MIC [7, 35]
93 ± 11 µM: CC50 [12]
> 8 µg/mL: MIC [6, 18] | MIC [6, 22] | MIC [10, 48] | MIC [10, 50] | MIC [10, 51] | MIC [10, 52] | MIC [10, 53] | MIC [10, 54] | MIC [10, 55] | MIC [10, 56] | MIC [10, 57]
> 100 µM: CC50 [1] | CC50 [2]
active, though less potent: Inhibition of pseudovirus entry in A549-AT cells (in words) [4]
1.71 µg/mL: MIC [7, 26]
1 µg/mL: MIC [7, 23] | MIC [7, 30] | MIC [7, 31] | MIC [8, 43] | MIC [11, 61] | MIC [11, 62]
66 ± 1 µM: IC50 [5]
highly effective: Inhibition of pseudovirus entry in Vero cells (in words) [3]
0.5 µg/mL: MIC [11, 64]
0.125 µg/mL: MIC [11, 65]

CC(=O)N[C@H]1[C@H](O[C@@H]2c3ccc(c(Cl)c3)Oc3cc4cc(c3O)Oc3ccc(cc3Cl)C[C@H]3NC(=O)[C@H](NC(=O)c5cc(OCCCSCCNC(=N)N)c(OCCCSCCNC(=N)N)c(OCCCSCCNC(=N)N)c5)c5ccc(O)c(c5)Oc5cc(O)cc(c5)[C@H](NC3=O)C(=O)N[C@H]4C(=O)N[C@H]3C(=O)N[C@@H]2C(=O)N[C@H](C(=O)O)c2cc(O)cc(O)c2-c2cc3ccc2O)O[C@H](CO)[C@@H](O)[C@@H]1O [Compound 7]
> 8 µg/mL: MIC [6, 18] | MIC [6, 22] | MIC [10, 48] | MIC [10, 50] | MIC [10, 51] | MIC [10, 52] | MIC [10, 53] | MIC [10, 54] | MIC [10, 55] | MIC [10, 56] | MIC [10, 57]
0.5 µg/mL: MIC [7, 23] | MIC [8, 43] | MIC [8, 44]
2 µg/mL: MIC [6, 19] | MIC [6, 20] | MIC [6, 21] | MIC [7, 36] | MIC [8, 41] | MIC [8, 42] | MIC [10, 49] | MIC [10, 58]
0.89 µg/mL: MIC [7, 26]
512 µg/mL: MIC [13]
no effect: Outcompeting fluorescent vancomycin from S. aureus (in words) [17]
1.12 µg/mL: MIC [7, 35]
> 100 µM: CC50 [1] | CC50 [2] | CC50 [12]
4.5 ± 1 µM: IC50 [5]
0.25 µg/mL: MIC [7, 33] | MIC [9, 45] | MIC [9, 46] | MIC [9, 47] | MIC [11, 59] | MIC [11, 60] | MIC [11, 61] | MIC [11, 62] | MIC [11, 63] | MIC [11, 64] | MIC [11, 65]
1.2 µg/mL: MIC [8, 38]
256 µg/mL: MIC [16]
1 µg/mL: MIC [7, 24] | MIC [7, 25] | MIC [7, 27] | MIC [7, 28] | MIC [7, 29] | MIC [7, 30] | MIC [7, 31] | MIC [7, 32] | MIC [7, 34] | MIC [7, 37] | MIC [8, 39] | MIC [8, 40]
128 µg/mL: MIC [14] | MIC [15]
